Laboratory results as given in PubChem BioAssay AID1963969 (Molecular Pharmacology Branch, DTP, NCI, 2024).
“And” between values parts separate entries of the source, which are not always exact repeats. Identical values can stand only once.

Test system: 817829-284-R-J1-PDC multi-cell spheroid viability
Experiment: Anticancer human tumor 817829-284-R-J1-PDC patient-derived colon adenocarcinoma cell line growth inhibition [PI3K]
Details: for viability, T/C: stronger effect = lower value
Outline: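 Stroma-containing spheroids: tumor line, pooled-donor HUVEC, hMSC. Treatments: targeted agents with PI3K inhibitors. Dosing: clinically relevant, half-log spacing, 10 microM ceiling without known Cmax. Read-out: cell viability.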

[1] = curve of first compound, second compound 0.0316 µM
[2] = curve of first compound, second compound 0.1 µM
[3] = curve of first compound, second compound 0.316 µM
[4] = curve of first compound, second compound 1 µM
[5] = curve of first compound, second compound 3.16 µM
[6] = curve of first compound, second compound 10 µM
[7] = second compound 0.0316 µM, first compound 0.0316 µM
[8] = second compound 0.0316 µM, first compound 0.1 µM
[9] = second compound 0.1 µM, first compound 0.0316 µM
[10] = second compound 0.1 µM, first compound 0.1 µM
[11] = second compound 0.316 µM, first compound 0.0316 µM
[12] = second compound 0.316 µM, first compound 0.1 µM
[13] = second compound 1 µM, first compound 0.0316 µM
[14] = second compound 1 µM, first compound 0.1 µM
[15] = second compound 3.16 µM, first compound 0.0316 µM
[16] = second compound 3.16 µM, first compound 0.1 µM
[17] = second compound 10 µM, first compound 0.0316 µM
[18] = second compound 10 µM, first compound 0.1 µM
[19] = second compound 0.0316 µM, first compound 0.316 µM
[20] = second compound 0.0316 µM, first compound 1 µM
[21] = second compound 0.0316 µM, first compound 3.16 µM
[22] = second compound 0.0316 µM, first compound 10 µM
[23] = second compound 0.1 µM, first compound 0.316 µM
[24] = second compound 0.1 µM, first compound 1 µM
[25] = second compound 0.1 µM, first compound 3.16 µM
[26] = second compound 0.1 µM, first compound 10 µM
[27] = second compound 0.316 µM, first compound 0.316 µM
[28] = second compound 0.316 µM, first compound 1 µM
[29] = second compound 0.316 µM, first compound 3.16 µM
[30] = second compound 0.316 µM, first compound 10 µM
[31] = second compound 1 µM, first compound 0.316 µM
[32] = second compound 1 µM, first compound 1 µM
[33] = second compound 1 µM, first compound 3.16 µM
[34] = second compound 1 µM, first compound 10 µM
[35] = second compound 3.16 µM, first compound 0.316 µM
[36] = second compound 3.16 µM, first compound 1 µM
[37] = second compound 3.16 µM, first compound 3.16 µM
[38] = second compound 3.16 µM, first compound 10 µM
[39] = second compound 10 µM, first compound 0.316 µM
[40] = second compound 10 µM, first compound 1 µM
[41] = second compound 10 µM, first compound 3.16 µM
[42] = second compound 10 µM, first compound 10 µM
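Also: spheroids exposed to agents for seven days before readout.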
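For viability, T/C in this document: percent of vehicle DMSO control viability which is 100%.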

Cn1ncnc1[C@H]1c2n[nH]c(=O)c3cc(F)cc(c23)N[C@@H]1c1ccc(F)cc1 + Cc1nc(NC(=O)N2CCCC2C(N)=O)sc1-c1ccnc(C(C)(C)C(F)(F)F)c1
IC50 [1]: 25.1 nM
IC50 [2]: 62.7 nM
IC50 [3]: 7.2 nM
IC50 [4]: 41.2 nM
IC50 [5]: 16.3 nM
IC50 [6]: 11.9 nM
viability, T/C (second compound 0.0316 µM, first compound 0.000316 µM): 60.7%
viability, T/C (second compound 0.0316 µM, first compound 0.001 µM): 77%
viability, T/C (second compound 0.0316 µM, first compound 0.00316 µM): 72.5%
viability, T/C (second compound 0.0316 µM, first compound 0.01 µM): 55.1%
viability, T/C [7]: 49.4%
viability, T/C [8]: 48%
viability, T/C (second compound 0.1 µM, first compound 0.000316 µM): 78.6%
viability, T/C (second compound 0.1 µM, first compound 0.001 µM): 72.2%
viability, T/C (second compound 0.1 µM, first compound 0.00316 µM): 69.1%
viability, T/C (second compound 0.1 µM, first compound 0.01 µM): 59.6%
viability, T/C [9]: 53.9%
viability, T/C [10]: 47.5%
viability, T/C (second compound 0.316 µM, first compound 0.000316 µM): 84.8%
viability, T/C (second compound 0.316 µM, first compound 0.001 µM): 87.2%
viability, T/C (second compound 0.316 µM, first compound 0.00316 µM): 55.5%
viability, T/C (second compound 0.316 µM, first compound 0.01 µM): 55.8%
viability, T/C [11]: 37.2%
viability, T/C [12]: 50.2%
viability, T/C (second compound 1 µM, first compound 0.000316 µM): 59%
viability, T/C (second compound 1 µM, first compound 0.001 µM): 52.1%
viability, T/C (second compound 1 µM, first compound 0.00316 µM): 54.5%
viability, T/C (second compound 1 µM, first compound 0.01 µM): 43.3%
viability, T/C [13]: 70.2%
viability, T/C [14]: 30.8%
viability, T/C (second compound 3.16 µM, first compound 0.000316 µM): 48.5%
viability, T/C (second compound 3.16 µM, first compound 0.001 µM): 72.7%
viability, T/C (second compound 3.16 µM, first compound 0.00316 µM): 60.7%
viability, T/C (second compound 3.16 µM, first compound 0.01 µM): 62.6%
viability, T/C [15]: 33.1%
viability, T/C [16]: 36.8%
viability, T/C (second compound 10 µM, first compound 0.000316 µM): 49.9%
viability, T/C (second compound 10 µM, first compound 0.001 µM): 54.9%
viability, T/C (second compound 10 µM, first compound 0.00316 µM): 60.7%
viability, T/C (second compound 10 µM, first compound 0.01 µM): 40.6%
viability, T/C [17]: 50.8%
viability, T/C [18]: 38.2%

CC(Cn1ccc(-c2ccc(C#N)c(Cl)c2)n1)NC(=O)c1cc(C(C)O)[nH]n1 (configuration not stated)
IC50 (curve of compound): > 10000 nM

CC(Cn1ccc(-c2ccc(C#N)c(Cl)c2)n1)NC(=O)c1cc(C(C)O)[nH]n1 (configuration not stated) + Cc1nc(NC(=O)N2CCCC2C(N)=O)sc1-c1ccnc(C(C)(C)C(F)(F)F)c1
IC50 [1]: > 10000 nM
IC50 [2]: < 31.6 nM
IC50 [3]: > 10000 nM
IC50 [4]: 2620 nM
IC50 [5]: > 10000 nM
IC50 [6]: < 31.6 nM
viability, T/C [7]: 72.1%
viability, T/C [8]: 92.1%
viability, T/C [19]: 118%
viability, T/C [20]: 82.5%
viability, T/C [21]: 64.8%
viability, T/C [22]: 67.4%
viability, T/C [9]: 42.2%
viability, T/C [10]: 81.5%
viability, T/C [23]: 96.1%
viability, T/C [24]: 103%
viability, T/C [25]: 85.2%
viability, T/C [26]: 71.1%
viability, T/C [11]: 56.9%
viability, T/C [12]: 94.3%
viability, T/C [27]: 72.3%
viability, T/C [28]: 72.1%
viability, T/C [29]: 75.8%
viability, T/C [30]: 54.4%
viability, T/C [13]: 53.1%
viability, T/C [14]: 89.8%
viability, T/C [31]: 80.5%
viability, T/C [32]: 71.5%
viability, T/C [33]: 42.1%
viability, T/C [34]: 49.5%
viability, T/C [15]: 66.7%
viability, T/C [16]: 55.2%
viability, T/C [35]: 50.1%
viability, T/C [36]: 89.7%
viability, T/C [37]: 42%
viability, T/C [38]: 57.2%
viability, T/C [17]: 55.8%
viability, T/C [18]: 31.7%
viability, T/C [39]: 47.2%
viability, T/C [40]: 40.9%
viability, T/C [41]: 59.4%
viability, T/C [42]: 35%

CNC(=O)c1ccc(N2C(=S)N(c3ccc(C#N)c(C(F)(F)F)c3)C(=O)C2(C)C)cc1F + Cc1nc(NC(=O)N2CCCC2C(N)=O)sc1-c1ccnc(C(C)(C)C(F)(F)F)c1
IC50 [1]: > 10000 nM
IC50 [2]: > 10000 nM
IC50 [3]: > 10000 nM
IC50 [4]: 6960 nM
IC50 [5]: 2350 nM
IC50 [6]: 1150 nM
viability, T/C [7]: 95.7%
viability, T/C [8]: 102%
viability, T/C [19]: 96.2%
viability, T/C [20]: 90.2%
viability, T/C [21]: 67.6%
viability, T/C [22]: 84.6%
viability, T/C [9]: 69%
viability, T/C [10]: 77.8%
viability, T/C [23]: 87.4%
viability, T/C [24]: 69.3%
viability, T/C [25]: 56.4%
viability, T/C [26]: 68.2%
viability, T/C [11]: 106%
viability, T/C [12]: 85.5%
viability, T/C [27]: 68.8%
viability, T/C [28]: 70.6%
viability, T/C [29]: 77.2%
viability, T/C [30]: 63.3%
viability, T/C [13]: 60%
viability, T/C [14]: 73.6%
viability, T/C [31]: 68.7%
viability, T/C [32]: 107%
viability, T/C [33]: 63.3%
viability, T/C [34]: 43.8%
viability, T/C [15]: 67.3%
viability, T/C [16]: 77.8%
viability, T/C [35]: 81.8%
viability, T/C [36]: 58.3%
viability, T/C [37]: 48.5%
viability, T/C [38]: 34.5%
viability, T/C [17]: 60%
viability, T/C [18]: 70%
viability, T/C [39]: 54.8%
viability, T/C [40]: 52.6%
viability, T/C [41]: 38.3%
viability, T/C [42]: 22.9%

Cn1ncc(Cl)c1-c1cc(C(=O)NC(CN)Cc2cccc(F)c2)sc1Cl (configuration not stated) + CC(Nc1ccc2c(c1)OCCn1cc(N3C(=O)OCC3C(F)F)nc1-2)C(N)=O
IC50 (curve of first compound, second compound 0.00316 µM): < 31.6 nM
IC50 (curve of first compound, second compound 0.01 µM): 106 nM
IC50 [1]: < 31.6 nM
IC50 [2]: 41.6 nM
IC50 [3]: < 31.6 nM
IC50 [4]: < 31.6 nM
viability, T/C (second compound 0.00316 µM, first compound 0.0316 µM): 73.2%
viability, T/C (second compound 0.00316 µM, first compound 0.1 µM): 38.6%
viability, T/C (second compound 0.00316 µM, first compound 0.316 µM): 22.8%
viability, T/C (second compound 0.00316 µM, first compound 1 µM): 16.9%
viability, T/C (second compound 0.00316 µM, first compound 3.16 µM): 16.3%
viability, T/C (second compound 0.00316 µM, first compound 10 µM): 98.6%
viability, T/C (second compound 0.01 µM, first compound 0.0316 µM): 81.4%
viability, T/C (second compound 0.01 µM, first compound 0.1 µM): 51%
viability, T/C (second compound 0.01 µM, first compound 0.316 µM): 22%
viability, T/C (second compound 0.01 µM, first compound 1 µM): 19.1%
viability, T/C (second compound 0.01 µM, first compound 3.16 µM): 14.4%
viability, T/C (second compound 0.01 µM, first compound 10 µM): 69%
viability, T/C [7]: 49.4%
viability, T/C [8]: 30.6%
viability, T/C [19]: 14.9%
viability, T/C [20]: 16.5%
viability, T/C [21]: 14.7%
viability, T/C [22]: 55.9%
viability, T/C [9]: 56.3%
viability, T/C [10]: 31.4%
viability, T/C [23]: 21%
viability, T/C [24]: 16.7%
viability, T/C [25]: 14%
viability, T/C [26]: 53.2%
viability, T/C [11]: 46.4%
viability, T/C [12]: 33.7%
viability, T/C [27]: 16.8%
viability, T/C [28]: 13.2%
viability, T/C [29]: 11.9%
viability, T/C [30]: 44.7%
viability, T/C [13]: 34.4%
viability, T/C [14]: 25.6%
viability, T/C [31]: 16.7%
viability, T/C [32]: 14.2%
viability, T/C [33]: 12.3%
viability, T/C [34]: 84.7%

CC1(C)CCC(CN2CCN(c3ccc(C(=O)NS(=O)(=O)c4ccc(NCC5CCOCC5)c([N+](=O)[O-])c4)c(Oc4cnc5[nH]ccc5c4)c3)CC2)=C(c2ccc(Cl)cc2)C1
viability, T/C (compound 0.0316 µM): 66.2% and 63.1% and 99.8%
viability, T/C (compound 0.1 µM): 60.4% and 90.3% and 105%
viability, T/C (compound 0.316 µM): 60.5% and 85.7% and 66.8%
viability, T/C (compound 1 µM): 84.6% and 95.4% and 97.1%
viability, T/C (compound 3.16 µM): 98.1% and 98.5% and 56.7%
IC50 (curve of compound): > 10000 nM and 5630 nM and 3670 nM

C[C@@H](NC(=O)c1ncnc(N)c1Cl)c1ncc(C(=O)Nc2cc(C(F)(F)F)c(Cl)cn2)s1
viability, T/C (compound 0.0316 µM): 97.5% and 79.4%
viability, T/C (compound 0.1 µM): 79.2% and 114%
viability, T/C (compound 0.316 µM): 89.2% and 87.8%
viability, T/C (compound 1 µM): 70.5% and 67%
viability, T/C (compound 3.16 µM): 113% and 64.2%
viability, T/C (compound 10 µM): 59.5% and 101%
IC50 (curve of compound): > 10000 nM
